For the assay, the system named is T1, Bgl.
T1 construct: gene bglA; bglA-bglB fusion (usp45-bglA-usp45-bglB, pMG36e) secreted by L. lactis NZ9000; gene 2722 bp; printed about 75 kDa (less than the sum of both); supernatant / TCA-acetone precipitate
Nature of the assay: DNS reducing sugar assay, Michaelis-Menten / Lineweaver-Burk fit. In kind it is biochemical, Paenibacillus polymyxa. The note with it: 50 °C, pH 7.0; bacterial supernatant. The source says:
DNS reducing sugar assay, Michaelis-Menten / Lineweaver-Burk fit on Bgl

On to `OCc1ccccc1O[C@@H]1O[C@H](CO)[C@@H](O)[C@H](O)[C@H]1O` [salicin], for which the Km (usually the substrate concentration at which the rate is half of its maximum) worked out at 34.8 µM.

(Values after PMC10305218, “Expression of β-Glucosidases from the Yak Rumen in Lactic Acid Bacteria: A Genetic Engineering Approach” (Microorganisms, 2023).)
